Source: patent US7138361B2, “Herbicidal heterocycles” (E. I. du Pont de Nemours and Company, priority 2000, dated 2006)

What was measured:
Type in all cases: in vivo
[1] = system: goosegrass (Eleusine indica); assay: Test C preemergence
In short: (§1)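 Pre- and postemergence treatments used a non-phytotoxic solvent/surfactant formulation; post-treated plants measured 2 to 18 cm. Greenhouse hold 12–14 d; % control estimated visually relative to controls.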

[2] = system: crabgrass (Digitaria sanguinalis); assay: Test C preemergence
In short: as §1

[3] = system: cocklebur (Xanthium strumarium); assay: Test C preemergence
In short: as §1

[4] = system: velvetleaf (Abutilon theophrasti); assay: Test C preemergence
In short: as §1

kochia (Kochia scoparia) = assay: Test C preemergence
In short: as §1

[5] = system: woolly cupgrass (Eriochloa villosa); assay: Test C preemergence
In short: as §1

[6] = system: Surinam grass (Brachiaria decumbens); assay: Test C preemergence
In short: as §1

[7] = system: morningglory (Ipomoea hederacea); assay: Test C preemergence
In short: as §1

Nightshade = assay: Test C preemergence
[8] = system: giant foxtail (Setaria faberii); assay: Test C preemergence
In short: as §1

corn (Zea mays) = assay: Test C preemergence
In short: as §1

[9] = system: bermudagrass (Cynodon dactylon); assay: Test C preemergence
In short: as §1

[10] = system: yellow nutsedge (Cyperus esculentus); assay: Test C preemergence
In short: as §1

[11] = system: lambsquarters (Chenopodium album); assay: Test C preemergence
In short: as §1

[12] = system: common ragweed (Ambrosia elatior); assay: Test C preemergence
In short: as §1

Sunflower = assay: Test C preemergence; settings: Rate 500 g/ha, scale 0 to 100
[13] = system: pigweed (Amaranthus retroflexus); assay: Test C preemergence
In short: as §1

soybean (Glycine max) = assay: Test C preemergence
In short: as §1

[14] = system: johnsongrass (Sorghum halepense); assay: Test C preemergence
In short: as §1

[15] = system: barnyardgrass (Echinochloa crus-galli); assay: Test C flooded paddy test; settings: for Plant response rating, Barnyardgrass: flooded paddy test, scale 0 to 100 (0 no effect, 100 complete control)
In short: (§2)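 2-leaf-stage plants, flooded paddy; treated; greenhouse 12–14 days; compared with controls by eye; rated 0–100 (0 none, 100 complete control).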

[16] = system: duck salad (Heteranthera limosa); assay: Test C flooded paddy test; settings: for Ducksalad plant response rating: Flooded Paddy, scale 0 to 100, 0 no effect, 100 complete control; for Plant response rating, Ducksalad: flooded paddy test, scale 0 to 100 (0 no effect, 100 complete control)
In short: as §2

[17] = system: smallflower flatsedge (Cyperus difformis); assay: Test C flooded paddy test; settings: for Flatsedge plant response rating: Flooded Paddy, scale 0 to 100, 0 no effect, 100 complete control; for Plant response rating, Flatsedge: flooded paddy test, scale 0 to 100 (0 no effect, 100 complete control)
In short: as §2

[18] = Preemergence, Rate 500 g/ha, scale 0 to 100
[19] = Rate 62 g/ha, scale 0 to 100, 0 no effect, 100 complete control
[20] = preemergence, Rate 250 g/ha, visual evaluation after 12 to 14 days
[21] = preemergence, Rate 125 g/ha, scale 0 to 100, 0 no effect, 100 complete control

O=C1C(n2ccc(C3CCCCC3)n2)OCN1c1cccc(C(F)(F)F)c1 (stereo not shown) [Compound 51]
40: Plant response rating, Kochia (kochia (Kochia scoparia); [19]) | Ducksalad plant response rating ([16]; Rate 250 g/ha) | Plant response rating, Flatsedge ([17]; Rate 62 g/ha)
100: Plant response rating, Goosegrass [1, 18] | Plant response rating (0 to 100), Goosegrass [1, 20] | Plant response rating, Crabgrass [2, 18] | Plant response rating (0 to 100), Crabgrass [2, 20] | Plant response rating, Crabgrass [2, 21] | Plant response rating, Cupgrass, Woolly [5, 18] | Plant response rating, Foxtail, Giant [8, 18] | Plant response rating (0 to 100), Foxtail, Giant [8, 20] | Plant response rating, Bermudagrass [9, 18] | Plant response rating (0 to 100 where 0 is no effect and 100 is complete control), Bermudagrass [9, 20] | Plant response rating, Bermudagrass [9, 21] | Plant response rating, Lambsquarters [11, 18] | Plant response rating (0 to 100), Lambsquarters [11, 20] | Plant response rating, Lambsquarters [11, 21] | Plant response rating (0 to 100), Pigweed [13, 20] | Flatsedge plant response rating ([17]; Rate 250 g/ha) | Flatsedge plant response rating ([17]; Rate 500 g/ha)
60: Plant response rating, Nightshade (Nightshade; Rate 500 g/ha, scale 0 to 100) | Plant response rating, Lambsquarters [11, 19] | Plant response rating (0 to 100), Johnsongrass [14, 20]
0: Plant response rating, Cocklebur [3, 18] | Plant response rating, Cocklebur [3, 19] | Plant response rating (0 to 100), Cocklebur [3, 20] | Plant response rating, Cocklebur [3, 21] | Plant response rating, Velvetleaf [4, 21] | Plant response rating, Morningglory [7, 21] | Plant response rating, Nightshade (Nightshade; [19]) | Plant response rating, Nightshade (Nightshade; Rate 125 g/ha, scale 0 to 100, 0 no effect, 100 complete control) | Plant response rating, Foxtail, Giant [8, 21] | Plant response rating, Corn (corn (Zea mays); [18]) | Plant response rating, Corn (corn (Zea mays); [19]) | Plant response rating (0 to 100), Corn (corn (Zea mays); [20]) | Plant response rating, Ragweed, Common [12, 18] | Plant response rating (0 to 100), Ragweed, Common [12, 20] | Plant response rating, Ragweed, Common [12, 21] | Plant response rating, Pigweed [13, 21] | Plant response rating, Soybean (soybean (Glycine max); [21]) | Plant response rating, Ducksalad ([16]; Rate 62 g/ha) | Plant response rating, Ducksalad ([16]; Rate 125 g/ha)
20: Plant response rating, Morningglory [7, 18] | Plant response rating, Nutsedge [10, 19] | Plant response rating, Nutsedge [10, 21] | Plant response rating (0 to 100), Soybean (soybean (Glycine max); [20]) | Plant response rating, Johnsongrass [14, 19] | Plant response rating, Johnsongrass [14, 21] | Plant response rating, Barnyardgrass ([15]; Rate 62 g/ha) | Plant response rating, Barnyardgrass ([15]; Rate 125 g/ha)
70: Plant response rating, Crabgrass [2, 19] | Plant response rating, Surinam grass [6, 18] | Plant response rating (0 to 100), Surinam grass [6, 20] | Plant response rating, Foxtail, Giant [8, 19] | Ducksalad plant response rating ([16]; Rate 500 g/ha)
90: Plant response rating, Goosegrass [1, 21] | Plant response rating, Bermudagrass [9, 19] | Plant response rating, Johnsongrass [14, 18] | Barnyardgrass plant response rating ([15]; Flooded Paddy, Rate 250 g/ha, scale 0 to 100, 0 no effect, 100 complete control) | Plant response rating, Flatsedge ([17]; Rate 125 g/ha)
80: Plant response rating, Goosegrass [1, 19] | Plant response rating, Kochia (kochia (Kochia scoparia); [18]) | Plant response rating (0 to 100), Cupgrass, Woolly [5, 20]
30: Plant response rating, Velvetleaf [4, 18] | Plant response rating (0 to 100), Velvetleaf [4, 20] | Plant response rating, Surinam grass [6, 19] | Plant response rating, Surinam grass [6, 21] | Plant response rating, Nutsedge [10, 18] | Plant response rating (0 to 100), Nutsedge [10, 20] | Plant response rating, Sunflower (Sunflower) | Plant response rating, Pigweed [13, 18] | Plant response rating, Soybean (soybean (Glycine max); [18])
50: Plant response rating (0 to 100), Kochia (kochia (Kochia scoparia); [20]) | Plant response rating, Kochia (kochia (Kochia scoparia); [21]) | Plant response rating, Cupgrass, Woolly [5, 19] | Plant response rating, Cupgrass, Woolly [5, 21]
